Source: PubChem BioAssay (NCI)
Where “and” joins values, the source holds several entries; their conditions need not be identical. Equal entries are not always repeated.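 Interpolation was linear, between the two tested concentrations surrounding the appropriate level; five concentrations were tested over 48 hours in 96-well plates. GI50 marks 50% less growth. TGI marks complete inhibition of growth.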

Columns and labels:
Assay in all cases: NCI-60 cell line screen, 48 h
U251 CNS = tested on: U251 CNS
M14 melanoma = tested on: M14 melanoma
ACHN renal = tested on: ACHN renal
A549 NSCLC = tested on: A549 NSCLC
SK-MEL-5 melanoma = tested on: SK-MEL-5 melanoma
LOX IMVI melanoma = tested on: LOX IMVI melanoma
MOLT-4 leukemia = tested on: MOLT-4 leukemia
A498 renal = tested on: A498 renal
KM12 colon = tested on: KM12 colon
HCT-116 colon = tested on: HCT-116 colon
CAKI-1 renal = tested on: CAKI-1 renal
MDA-MB-231 breast = tested on: MDA-MB-231 breast
CCRF-CEM leukemia = tested on: CCRF-CEM leukemia
SK-OV-3 ovarian = tested on: SK-OV-3 ovarian
NCI-H226 lung = tested on: NCI-H226 lung
OVCAR-3 ovarian = tested on: OVCAR-3 ovarian
SW-620 colon = tested on: SW-620 colon
SK-MEL-28 melanoma = tested on: SK-MEL-28 melanoma
HL-60(TB) leukemia = tested on: HL-60(TB) leukemia
SNB-19 CNS = tested on: SNB-19 CNS
HCC-2998 colon = tested on: HCC-2998 colon
HCT-15 colon = tested on: HCT-15 colon
COLO 205 colon = tested on: COLO 205 colon
T-47D breast = tested on: T-47D breast
SN12C renal = tested on: SN12C renal
SR leukemia = tested on: SR leukemia
TK-10 renal = tested on: TK-10 renal
PC-3 prostate = tested on: PC-3 prostate
MCF7 breast = tested on: MCF7 breast
BT-549 breast = tested on: BT-549 breast
HT29 colon = tested on: HT29 colon
OVCAR-4 ovarian = tested on: OVCAR-4 ovarian
MDA-MB-435 = tested on: MDA-MB-435
DU-145 prostate = tested on: DU-145 prostate
OVCAR-8 ovarian = tested on: OVCAR-8 ovarian
SK-MEL-2 melanoma = tested on: SK-MEL-2 melanoma
K-562 leukemia = tested on: K-562 leukemia
HOP-62 NSCLC = tested on: HOP-62 NSCLC
SF-268 CNS = tested on: SF-268 CNS
IGROV1 ovarian = tested on: IGROV1 ovarian
MALME-3M melanoma = tested on: MALME-3M melanoma
RXF 393 renal = tested on: RXF 393 renal
UO-31 renal = tested on: UO-31 renal
NCI-H522 lung = tested on: NCI-H522 lung
SF-295 CNS = tested on: SF-295 CNS
RPMI-8226 leukemia = tested on: RPMI-8226 leukemia
SNB-75 CNS = tested on: SNB-75 CNS
NCI-H460 lung = tested on: NCI-H460 lung
SF-539 CNS = tested on: SF-539 CNS
HOP-92 NSCLC = tested on: HOP-92 NSCLC
EKVX NSCLC = tested on: EKVX NSCLC
NCI-H23 lung = tested on: NCI-H23 lung
HS 578T breast = tested on: HS 578T breast
786-0 renal = tested on: 786-0 renal
UACC-62 melanoma = tested on: UACC-62 melanoma
NCI/ADR-RES ovarian = tested on: NCI/ADR-RES ovarian
OVCAR-5 ovarian = tested on: OVCAR-5 ovarian
UACC-257 melanoma = tested on: UACC-257 melanoma

Compound: CC(=O)c1cc2c(o1)C(=O)c1ccccc1C2=O
- GI50 (U251 CNS): 197 nM and 256 nM
- TGI (U251 CNS): 378 nM and 682 nM
- GI50 (M14 melanoma): 169 nM and 183 nM
- TGI (M14 melanoma): 322 nM and 345 nM
- GI50 (ACHN renal): 467 nM and 415 nM
- TGI (ACHN renal): 1600 nM and 1310 nM
- GI50 (A549 NSCLC): 217 nM and 208 nM
- TGI (A549 NSCLC): 453 nM and 434 nM
- GI50 (SK-MEL-5 melanoma): 169 nM and 173 nM
- TGI (SK-MEL-5 melanoma): 310 nM and 316 nM
- GI50 (LOX IMVI melanoma): 121 nM and 187 nM
- TGI (LOX IMVI melanoma): 323 nM and 438 nM
- GI50 (MOLT-4 leukemia): 570 nM and 865 nM
- TGI (MOLT-4 leukemia): 1850 nM and 3650 nM
- GI50 (A498 renal): 682 nM and 1370 nM
- TGI (A498 renal): 1480 nM and 2690 nM
- GI50 (KM12 colon): 543 nM and 713 nM
- TGI (KM12 colon): 1620 nM and 2090 nM
- GI50 (HCT-116 colon): 226 nM and 267 nM
- TGI (HCT-116 colon): 544 nM and 805 nM
- GI50 (CAKI-1 renal): 1450 nM and 823 nM
- TGI (CAKI-1 renal): 2930 nM and 2240 nM
- GI50 (MDA-MB-231 breast): 765 nM and 1660 nM
- TGI (MDA-MB-231 breast): 4290 nM and 6880 nM
- GI50 (CCRF-CEM leukemia): 403 nM and 1020 nM
- TGI (CCRF-CEM leukemia): > 100000 nM
- GI50 (SK-OV-3 ovarian): 1410 nM and 1780 nM
- TGI (SK-OV-3 ovarian): 2860 nM and 3300 nM
- GI50 (NCI-H226 lung): 226 nM and 212 nM
- TGI (NCI-H226 lung): 500 nM and 472 nM
- GI50 (OVCAR-3 ovarian): 218 nM and 225 nM
- TGI (OVCAR-3 ovarian): 507 nM and 529 nM
- GI50 (SW-620 colon): 288 nM and 276 nM
- TGI (SW-620 colon): 794 nM and 756 nM
- GI50 (SK-MEL-28 melanoma): 222 nM and 292 nM
- TGI (SK-MEL-28 melanoma): 437 nM and 689 nM
- GI50 (HL-60(TB) leukemia): 241 nM and 271 nM
- TGI (HL-60(TB) leukemia): 641 nM and 773 nM
- GI50 (SNB-19 CNS): 222 nM and 267 nM
- TGI (SNB-19 CNS): 508 nM and 795 nM
- GI50 (HCC-2998 colon): 460 nM and 261 nM
- TGI (HCC-2998 colon): 993 nM and 689 nM
- GI50 (HCT-15 colon): 166 nM and 179 nM
- TGI (HCT-15 colon): 365 nM and 398 nM
- GI50 (COLO 205 colon): 192 nM and 1720 nM
- TGI (COLO 205 colon): 374 nM and 3440 nM
- GI50 (T-47D breast): 1330 nM and 1600 nM
- TGI (T-47D breast): 3430 nM and 4060 nM
- GI50 (SN12C renal): 177 nM
- TGI (SN12C renal): 346 nM
- GI50 (SR leukemia): 299 nM and 308 nM
- TGI (SR leukemia): 5360 nM
- GI50 (TK-10 renal): 248 nM and 1400 nM
- TGI (TK-10 renal): 595 nM and 2900 nM
- GI50 (PC-3 prostate): 713 nM and 825 nM
- TGI (PC-3 prostate): 2810 nM and 4480 nM
- GI50 (MCF7 breast): 167 nM and 171 nM
- TGI (MCF7 breast): 394 nM
- GI50 (BT-549 breast): 164 nM and 161 nM
- TGI (BT-549 breast): 312 nM and 304 nM
- GI50 (HT29 colon): 226 nM and 276 nM
- TGI (HT29 colon): 529 nM and 756 nM
- GI50 (OVCAR-4 ovarian): 255 nM and 377 nM
- TGI (OVCAR-4 ovarian): 767 nM and 1480 nM
- GI50 (MDA-MB-435): 89 nM and 181 nM
- TGI (MDA-MB-435): 238 nM and 330 nM
- GI50 (DU-145 prostate): 174 nM and 186 nM
- TGI (DU-145 prostate): 320 nM and 331 nM
- GI50 (OVCAR-8 ovarian): 411 nM and 378 nM
- TGI (OVCAR-8 ovarian): 1320 nM and 1530 nM
- GI50 (SK-MEL-2 melanoma): 420 nM and 548 nM
- TGI (SK-MEL-2 melanoma): 1290 nM and 2000 nM
- GI50 (K-562 leukemia): 284 nM and 311 nM
- TGI (K-562 leukemia): 795 nM and 1530 nM
- GI50 (HOP-62 NSCLC): 163 nM and 186 nM
- TGI (HOP-62 NSCLC): 329 nM and 350 nM
- GI50 (SF-268 CNS): 280 nM and 513 nM
- TGI (SF-268 CNS): 959 nM and 2300 nM
- GI50 (IGROV1 ovarian): 644 nM and 409 nM
- TGI (IGROV1 ovarian): 1630 nM and 1560 nM
- GI50 (MALME-3M melanoma): 180 nM and 143 nM
- TGI (MALME-3M melanoma): 332 nM and 281 nM
- GI50 (RXF 393 renal): 239 nM and 249 nM
- TGI (RXF 393 renal): 563 nM and 634 nM
- GI50 (UO-31 renal): 219 nM and 217 nM
- TGI (UO-31 renal): 570 nM and 531 nM
- GI50 (NCI-H522 lung): 190 nM and 194 nM
- TGI (NCI-H522 lung): 413 nM and 495 nM
- GI50 (SF-295 CNS): 173 nM
- TGI (SF-295 CNS): 332 nM and 317 nM
- GI50 (RPMI-8226 leukemia): 731 nM and 917 nM
- TGI (RPMI-8226 leukemia): 1800 nM and 3860 nM
- GI50 (SNB-75 CNS): 181 nM and 195 nM
- TGI (SNB-75 CNS): 328 nM and 376 nM
- GI50 (NCI-H460 lung): 210 nM and 194 nM
- TGI (NCI-H460 lung): 422 nM and 375 nM
- GI50 (SF-539 CNS): 178 nM and 184 nM
- TGI (SF-539 CNS): 317 nM and 328 nM
- GI50 (HOP-92 NSCLC): 2180 nM and 1820 nM
- TGI (HOP-92 NSCLC): 4240 nM and 3470 nM
- GI50 (EKVX NSCLC): 1190 nM and 1550 nM
- TGI (EKVX NSCLC): 2960 nM and 3410 nM
- GI50 (NCI-H23 lung): 190 nM and 153 nM
- TGI (NCI-H23 lung): 535 nM and 458 nM
- GI50 (HS 578T breast): 292 nM and 295 nM
- TGI (HS 578T breast): 771 nM and 806 nM
- GI50 (786-0 renal): 381 nM and 1210 nM
- TGI (786-0 renal): 1020 nM and 2710 nM
- GI50 (UACC-62 melanoma): 229 nM and 178 nM
- TGI (UACC-62 melanoma): 476 nM and 335 nM
- GI50 (NCI/ADR-RES ovarian): 341 nM and 329 nM
- TGI (NCI/ADR-RES ovarian): 1810 nM and 1470 nM
- GI50 (OVCAR-5 ovarian): 181 nM and 186 nM
- TGI (OVCAR-5 ovarian): 346 nM and 345 nM
- GI50 (UACC-257 melanoma): 191 nM and 197 nM
- TGI (UACC-257 melanoma): 370 nM and 451 nM
